ChEMBL document CHEMBL1141157, “A combination of docking, QM/MM methods, and MD simulation for binding affinity estimation of metalloprotein ligands” (J Med Chem, 2005)

Columns and labels:
[1] = target: T1, Matrix metalloproteinase-9 (Homo sapiens, UniProt P14780); experiment: Inhibition of MOCAc-Pro-Leu-Gly-Leu-A2p (Dnp)-Ala-Arg-NH2 binding to human matrix metalloprotease-9 (MMP-9); settings: read-out: Log 1/Ki (converted)
[2] = target: T1, Matrix metalloproteinase-9; experiment: Inhibition constant for human matrix metalloprotease-9 (MMP-9)

T1 sequence (P14780 whole entry): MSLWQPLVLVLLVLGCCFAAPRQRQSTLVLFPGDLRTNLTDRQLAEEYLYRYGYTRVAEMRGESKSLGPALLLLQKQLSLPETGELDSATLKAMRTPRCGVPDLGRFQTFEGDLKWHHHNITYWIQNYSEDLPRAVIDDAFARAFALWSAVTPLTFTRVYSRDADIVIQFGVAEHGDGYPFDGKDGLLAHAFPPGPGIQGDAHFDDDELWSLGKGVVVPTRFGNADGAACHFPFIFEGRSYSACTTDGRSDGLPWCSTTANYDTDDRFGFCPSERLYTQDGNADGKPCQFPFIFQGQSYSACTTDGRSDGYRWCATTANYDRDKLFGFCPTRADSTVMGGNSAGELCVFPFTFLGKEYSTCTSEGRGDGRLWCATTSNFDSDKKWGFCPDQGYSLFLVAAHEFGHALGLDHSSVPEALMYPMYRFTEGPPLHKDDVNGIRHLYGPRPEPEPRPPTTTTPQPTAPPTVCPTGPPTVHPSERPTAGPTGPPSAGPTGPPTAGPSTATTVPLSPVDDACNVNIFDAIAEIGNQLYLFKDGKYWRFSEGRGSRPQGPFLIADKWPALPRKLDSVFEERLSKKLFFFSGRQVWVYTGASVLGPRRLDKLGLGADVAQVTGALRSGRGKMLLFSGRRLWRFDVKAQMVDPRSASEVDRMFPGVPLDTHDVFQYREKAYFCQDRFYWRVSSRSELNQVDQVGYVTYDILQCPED

Row | Compound | Ki [1] | Ki [2]
1 | CCOP(=O)(c1ccc(OC)cc1)N1Cc2cc(N)ccc2C[C@@H]1C(=O)NO (stereo partly drawn) | 11 nM | 
2 | CCOP(=O)(c1ccc(C)cc1)N1Cc2ccccc2C[C@@H]1C(=O)NO (stereo partly drawn) | 41.8 nM | 41.8 nM
3 | CCOP(=O)(c1ccc(N)cc1)N1Cc2ccccc2C[C@@H]1C(=O)NO (stereo partly drawn) | 95.5 nM | 
4 | CCOP(=O)(c1ccc(Oc2ccccc2)cc1)N1Cc2ccccc2C[C@@H]1C(=O)NO (stereo partly drawn) | 0.0794 nM | 
5 | CCOP(=O)(CCc1ccccc1)N1Cc2ccccc2C[C@@H]1C(=O)NO (stereo partly drawn) | 38.3 nM | 
6 | CCOP(=O)(c1ccc(Oc2ccncc2)cc1)N1Cc2ccccc2C[C@@H]1C(=O)NO (stereo partly drawn) | 0.6 nM | 
7 | CCOP(=O)(c1ccc(OC)cc1)N1Cc2ccccc2C[C@H]1C(=O)NO (stereo partly drawn) | 349 nM | 349 nM
8 | CCOP(=O)(c1ccc(Oc2ccc(N)cc2)cc1)N1Cc2ccccc2C[C@@H]1C(=O)NO (stereo partly drawn) | 0.1 nM | 
9 | CCOP(=O)(c1ccc(OC)cc1)N1CCC[C@@H]1C(=O)NO (stereo partly drawn) | 316 nM | 
10 | CCOP(=O)(c1ccc(OC)cc1)N1CC2Nc3ccccc3C2C[C@@H]1C(=O)NO (stereo partly drawn) | 1.13 nM | 
11 | COc1ccc(P(=O)(OCCc2ccc(-c3ccccc3)cc2)N2Cc3ccccc3C[C@@H]2C(=O)NO)cc1 (stereo partly drawn) | 6.47 nM | 
12 | CCOP(=O)(c1ccccc1)N1Cc2ccccc2C[C@@H]1C(=O)NO (stereo partly drawn) | 42.7 nM | 42.7 nM
13 | CCN(CC)CCOP(=O)(c1ccc(OC)cc1)N1Cc2ccccc2C[C@@H]1C(=O)NO (stereo partly drawn) | 16.7 nM | 
14 | COc1ccc(P(=O)(OCC2CCCCC2)N2Cc3ccccc3C[C@@H]2C(=O)NO)cc1 (stereo partly drawn) | 4.56 nM | 
15 | COc1ccc(P(=O)(OCCc2ccccn2)N2Cc3ccccc3C[C@@H]2C(=O)NO)cc1 (stereo partly drawn) | 3.42 nM | 
16 | CCOCCOc1ccc(P(=O)(OCC)N2Cc3ccccc3C[C@@H]2C(=O)NO)cc1 (stereo partly drawn) | 14.2 nM | 
17 | COc1ccc(P(=O)(OC)N2Cc3ccccc3C[C@@H]2C(=O)NO)cc1 (stereo partly drawn) | 2.03 nM | 
18 | CCOP(=O)(c1cccc(F)c1)N1Cc2ccccc2C[C@@H]1C(=O)NO (stereo partly drawn) | 80.2 nM | 
19 | CCOP(=O)(c1ccc(OC)cc1)N1Cc2ccccc2C[C@@H]1C(=O)NO (stereo partly drawn) | 5.05 nM | 5.05 nM
20 | CCOP(=O)(c1ccc(F)cc1)N1Cc2ccccc2C[C@@H]1C(=O)NO (stereo partly drawn) | 51.9 nM | 51.9 nM
21 | CCOP(=O)(c1cccs1)N1Cc2ccccc2C[C@@H]1C(=O)NO (stereo partly drawn) | 59.2 nM | 
22 | CCOP(=O)(c1ccccc1F)N1Cc2ccccc2C[C@@H]1C(=O)NO (stereo partly drawn) | 32.1 nM | 
23 | CCOP(=O)(c1ccc(OC)cc1)N1CCN(C(=O)OCc2ccccc2)C[C@@H]1C(=O)NO (stereo partly drawn) | 5.2 nM | 
24 | CCOCCOP(=O)(c1ccc(OC)cc1)N1Cc2ccccc2C[C@@H]1C(=O)NO (stereo partly drawn) | 6.35 nM | 
25 | CCOP(=O)(c1ccncc1)N1Cc2ccccc2C[C@@H]1C(=O)NO (stereo partly drawn) | 278 nM | 
26 | COc1ccc(P(=O)(OC2CCCCC2)N2Cc3ccccc3C[C@@H]2C(=O)NO)cc1 (stereo partly drawn) | 6.58 nM | 
27 | CCOP(=O)(c1ccc(-c2ccccc2)cc1)N1Cc2ccccc2C[C@@H]1C(=O)NO (stereo partly drawn) | 0.31 nM | 
28 | CCOP(=O)(c1ccc(OC)cc1)N1Cc2ccsc2C[C@@H]1C(=O)NO (stereo partly drawn) | 3.8 nM | 
